Common to all, as to assay: Bacterial growth minimal inhibitory concentration (microdilution, cation-adjusted Mueller-Hinton Broth)
What all share (format): cell-based
On the technique in general: In broth dilution the organism is exposed to a series of concentrations in liquid medium.

The subject of experiment [1] is P. aeruginosa ATCC27853. The following applies: quinolone-sensitive strain; for MIC: Pseudomonas aeruginosa, ATCC27853. The protocol: (§1) Minimal Inhibitory Concentrations (MICs; mg/L) were determined in cation-adjusted Mueller-Hinton Broth by a microdilution method following the description given in “Methods for Dilution Antimicrobial Susceptibility Tests for Bacteria that grow Aerobically”, Approved standard, 7th ed., Clinical and Laboratory Standards Institute (CLSI) Document M7-A7, Wayne, Pa., USA (2006).
(§2) All Example compounds were tested against several Gram-positive and Gram-negative bacteria. […] K. pneumoniae A-651 is a multiply-resistant strain (in particular quinolone-resistant), while E. coli ATCC25922 and P. aeruginosa ATCC27853 are quinolone-sensitive strains.

Experiment [2] relates to E. coli ATCC25922. The following applies: quinolone-sensitive strain; for MIC: Escherichia coli, ATCC25922. The method, then: as §1, §2
In experiment [3] the test system is K. pneumoniae A-651. To be noted: multiply-resistant strain (in particular quinolone-resistant); for MIC: Klebsiella pneumoniae, A651. The method, then:
as §1, §2

Converted amounts (≈) assume the structure as drawn.

As usually defined, the MIC is the least concentration at which growth counts as inhibited. Higher therefore signals a need for much substance. Turning to `C[C@@](CCN1Cc2cc(C#CC#C[C@H]3C[C@@H]3CN3CC(F)C3)sc2C1=O)(C(=O)NO)S(C)(=O)=O` [Example 30, (2R)-4-(2-(((1S,2S)-2-((3-fluoroazetidin-1-yl)methyl)cyclopropyl)buta-1,3-diyn-1-yl)-6-oxo-4,6-dihydro-5H-thieno[2,3-c]pyrrol-5-yl)-N-hydroxy-2-methyl-2-(methylsulfonyl)butanamide], the values for the minimal inhibitory concentration (MIC) in experiment [1], in experiment [2] and in experiment [3] were 2 µg/mL (≈ 3.94 µM), 0.125 µg/mL (≈ 0.246 µM) and 1 µg/mL (≈ 1.97 µM), respectively.

As to `C[C@@](CCN1Cc2cc(C#CC#C[C@H]3C[C@]3(F)CO)ccc2C1=O)(C(=O)NO)S(C)(=O)=O` [Example 18, (2R)-4-(5-(((1R,2R)-2-fluoro-2-(hydroxymethyl)cyclopropyl)buta-1,3-diyn-1-yl)-1-oxoisoindolin-2-yl)-N-hydroxy-2-methyl-2-(methylsulfonyl)butanamide], the values for the minimal inhibitory concentration (MIC) in experiment [1], in experiment [2] and in experiment [3] were 1 µg/mL (≈ 2.16 µM), 0.5 µg/mL (≈ 1.08 µM) and 2 µg/mL (≈ 4.32 µM), respectively.

As to `CN1C[C@H](C#CC#Cc2cc3c(s2)C(=O)N(CC[C@](C)(C(=O)NO)S(C)(=O)=O)C3)[C@H]1CF` [Example 41, (2R)-4-(2-(((2S,3S)-2-(fluoromethyl)-1-methylazetidin-3-yl)buta-1,3-diyn-1-yl)-6-oxo-4,6-dihydro-5H-thieno[2,3-c]pyrrol-5-yl)-N-hydroxy-2-methyl-2-(methylsulfonyl)butanamide], the MIC in experiment [1] came out at 1 µg/mL (≈ 2.08 µM); in experiment [2], 0.125 µg/mL (≈ 0.26 µM); in experiment [3] it was 0.25 µg/mL (≈ 0.519 µM).

For `C[C@@](CCN1Cc2cc(C#CC#CC3CN(CCO)C3)sc2C1=O)(C(=O)NO)S(C)(=O)=O` [Example 17, (2R)—N-hydroxy-4-(2-((1-(2-hydroxyethyl)azetidin-3-yl)buta-1,3-diyn-1-yl)-6-oxo-4,6-dihydro-5H-thieno[2,3-c]pyrrol-5-yl)-2-methyl-2-(methylsulfonyl)butanamide], the MIC in experiment [1] came to 1 µg/mL (≈ 2.09 µM); in experiment [2] it was 0.5 µg/mL (≈ 1.04 µM); in experiment [3], 2 µg/mL (≈ 4.17 µM).

Consider `C[C@@](CCN1Cc2cc(C#CC#CC3CN(C4CC(O)C4)C3)sc2C1=O)(C(=O)NO)S(C)(=O)=O` (stereo partly drawn) [Example 32, (2R)—N-hydroxy-4-(2-((1-((1r,3r)-3-hydroxycyclobutyl)azetidin-3-yl)buta-1,3-diyn-1-yl)-6-oxo-4,6-dihydro-5H-thieno[2,3-c]pyrrol-5-yl)-2-methyl-2-(methylsulfonyl)butanamide], for which, in experiment [1], the “MIC for P. aeruginosa ATCC27853” value was determined as 1 µg/mL. Also, the “MIC for E. coli ATCC25922” value in experiment [2] turned out to be 0.25 µg/mL. Further, in experiment [3], the “MIC for K. Pneumoniae A-651” value was determined as 0.5 µg/mL.

As for `C[C@@](CCN1Cc2cc(C#CC#CC3CN([C@@H]4CCOC4)C3)sc2C1=O)(C(=O)NO)S(C)(=O)=O` (single isomer, unassigned) [Example 37], the results for the MIC in experiment [1], in experiment [2] and in experiment [3] were 1 µg/mL (≈ 1.98 µM), 0.5 µg/mL (≈ 0.989 µM) and 0.5 µg/mL (≈ 0.989 µM), respectively.

Consider `C[C@@](CCN1Cc2cc(C#CC#CC3CN(CCF)C3)sc2C1=O)(C(=O)NO)S(C)(=O)=O` [Example 23, (2R)-4-(2-((1-(2-fluoroethyl)azetidin-3-yl)buta-1,3-diyn-1-yl)-6-oxo-4,6-dihydro-5H-thieno[2,3-c]pyrrol-5-yl)-N-hydroxy-2-methyl-2-(methylsulfonyl)butanamide], for which the MIC came out at 1 µg/mL (≈ 2.08 µM) in experiment [1], 0.063 µg/mL (≈ 0.131 µM) in experiment [2] and 0.25 µg/mL (≈ 0.519 µM) in experiment [3].

For the compound `C[C@@](CCN1Cc2cc(C#Cc3ccc(C4CN(C5COC5)C4)cc3)sc2C1=O)(C(=O)NO)S(C)(=O)=O` [Example 26, (2R)—N-hydroxy-2-methyl-2-(methylsulfonyl)-4-(2-((4-(1-(oxetan-3-yl)azetidin-3-yl)phenyl)ethynyl)-6-oxo-4,6-dihydro-H-thieno[2,3-c]pyrrol-5-yl)butanamide], the “MIC for P. aeruginosa ATCC27853” value in experiment [1] came out at 2 µg/mL. Moreover, in experiment [2], the “MIC for E. coli ATCC25922” value is 0.25 µg/mL. Besides, the “MIC for K. Pneumoniae A-651” value in experiment [3] turned out to be 0.25 µg/mL.

Take `C[C@@](CCN1Cc2cc(C#CC#CCOC(=O)N3CC(O)C3)ccc2C1=O)(C(=O)NO)S(C)(=O)=O` [Example 9, (3R)-5-(2-(4-(hydroxyamino)-3-methyl-3-(methylsulfonyl)-4-oxobutyl)-1-oxoisoindolin-5-yl)penta-2,4-diyn-1-yl 3-hydroxyazetidine-1-carboxylate]: the MIC in experiment [1] stood at 2 µg/mL (≈ 3.97 µM); in experiment [2], 1 µg/mL (≈ 1.99 µM); in experiment [3] it was 1 µg/mL (≈ 1.99 µM).

Turning to `COc1ccc(-c2ccc3c(c2)CN(CC[C@](C)(C(=O)NO)S(C)(=O)=O)C3=O)c(F)c1` [Example 10, (2R)-4-(5-(2-fluoro-4-methoxyphenyl)-1-oxoisoindolin-2-yl)-N-hydroxy-2-methyl-2-(methylsulfonyl)butanamide], the minimal inhibitory concentration (MIC) in experiment [1] was 8 µg/mL (≈ 17.8 µM); in experiment [2], 0.125 µg/mL (≈ 0.277 µM); in experiment [3], 0.063 µg/mL (≈ 0.14 µM).

In the case of `CNC1(C#CC#Cc2ccc3c(c2)CN(CC[C@](C)(C(=O)NO)S(C)(=O)=O)C3=O)CC1` [Example 7, (2R)—N-hydroxy-2-methyl-4-(5-((1-(methylamino)cyclopropyl)buta-1,3-diyn-1-yl)-1-oxoisoindolin-2-yl)-2-(methylsulfonyl)butanamide], the MIC in experiment [1] is 2 µg/mL (≈ 4.51 µM); in experiment [2], 0.25 µg/mL (≈ 0.564 µM); in experiment [3] it was 1 µg/mL (≈ 2.25 µM).

Turning to `CN1[C@@H](CO)C[C@@H]1C#CC#Cc1cc2c(s1)C(=O)N(CC[C@](C)(C(=O)NO)S(C)(=O)=O)C2` [Example 40, (2R)—N-hydroxy-4-(2-(((2R,4R)-4-(hydroxymethyl)-1-methylazetidin-2-yl)buta-1,3-diyn-1-yl)-6-oxo-4,6-dihydro-5H-thieno[2,3-c]pyrrol-5-yl)-2-methyl-2-(methylsulfonyl)butanamide], the MIC in experiment [1] turned out to be 1 µg/mL (≈ 2.09 µM); in experiment [2] it was 0.25 µg/mL (≈ 0.521 µM); in experiment [3], 2 µg/mL (≈ 4.17 µM).

`COc1ccc(-c2cc3c(s2)C(=O)N(CC[C@](C)(C(=O)NO)S(C)(=O)=O)C3)c(F)c1` [Example 2, (2R)-4-(2-(2-fluoro-4-methoxyphenyl)-6-oxo-4,6-dihydro-5H-thieno[2,3-c]pyrrol-5-yl)-N-hydroxy-2-methyl-2-(methylsulfonyl)butanamide]: the figures for the MIC in experiment [1], in experiment [2] and in experiment [3] were 2 µg/mL (≈ 4.38 µM), no more than 0.063 µg/mL and 0.25 µg/mL (≈ 0.548 µM), respectively.

Regarding `CC(C)N1CC(C#CC#Cc2cc3c(s2)C(=O)N(CC[C@](C)(C(=O)NO)S(C)(=O)=O)C3)C1` [Example 24, (R)—N-hydroxy-4-(2-((1-isopropylazetidin-3-yl)buta-1,3-diyn-1-yl)-6-oxo-4,6-dihydro-5H-thieno[2,3-c]pyrrol-5-yl)-2-methyl-2-(methylsulfonyl)butanamide], the minimum inhibitory concentration (MIC) in experiment [1] stood at 1 µg/mL (≈ 2.09 µM); in experiment [2], 0.25 µg/mL (≈ 0.523 µM); in experiment [3], 0.5 µg/mL (≈ 1.05 µM).

Take `C[C@@](CCN1Cc2cc(C#CC#CC3CN([C@H]4CCOC4)C3)sc2C1=O)(C(=O)NO)S(C)(=O)=O` (single isomer, unassigned) [Example 38]: the MIC in experiment [1] amounted to 1 µg/mL (≈ 1.98 µM); in experiment [2] it was 0.25 µg/mL (≈ 0.494 µM); in experiment [3], 0.25 µg/mL (≈ 0.494 µM).

Turning to `C[C@@](CCN1Cc2cc(C#CC#CC3CN(CC4COC4)C3)sc2C1=O)(C(=O)NO)S(C)(=O)=O` [Example 28, (2R)—N-hydroxy-2-methyl-2-(methylsulfonyl)-4-(2-((1-(oxetan-3-ylmethyl)azetidin-3-yl)buta-1,3-diyn-1-yl)-6-oxo-4,6-dihydro-5H-thieno[2,3-c]pyrrol-5-yl)butanamide], the values for the MIC in experiment [1], in experiment [2] and in experiment [3] were 2 µg/mL (≈ 3.96 µM), 0.25 µg/mL (≈ 0.494 µM) and 0.5 µg/mL (≈ 0.989 µM), respectively.

The values above are taken from patent US20190031676A1, “ANTIBACTERIAL ANNULATED PYRROLIDIN-2-ONE DERIVATIVES” (priority 2015, published 2019).
